Assays:
Assay in all cases: relative viability (nuclei count vs DMSO), 5 days (fraction); higher = more cells survive
BX 795 + Pictilisib = compound: O=C(NCCCNc1nc(Nc2cccc(NC(=O)N3CCCC3)c2)ncc1I)c1cccs1 [BX 795] + CS(=O)(=O)N1CCN(Cc2cc3nc(-c4cccc5[nH]ncc45)nc(N4CCOCC4)c3s2)CC1 [Pictilisib] (partner 1 µM)
How it was run: (§1)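 After 5 days of treatment, lung cancer cells in 1536-well plates were fixed and stained in a single step (final 0.05% Triton X-100, 1% formaldehyde, 1 ug/ml Hoechst) and their nuclei counted on 4× images. Treatment had been applied by pin tool the day after seeding as one drug alone or as a fixed anchor-drug dose with five library-drug doses (not always all listed) in √10 steps. Relative viability is the nuclei count of treated wells divided by that of vehicle wells, and values are medians of duplicate plates.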

BX 795 + Decitabine = compound: O=C(NCCCNc1nc(Nc2cccc(NC(=O)N3CCCC3)c2)ncc1I)c1cccs1 [BX 795] + Nc1ncn([C@H]2C[C@H](O)[C@@H](CO)O2)c(=O)n1 [Decitabine] (partner 2 µM)
How it was run: as §1

BX 795 + Trametinib = compound: O=C(NCCCNc1nc(Nc2cccc(NC(=O)N3CCCC3)c2)ncc1I)c1cccs1 [BX 795] + CC(=O)Nc1cccc(-n2c(=O)n(C3CC3)c(=O)c3c(Nc4ccc(I)cc4F)n(C)c(=O)c(C)c32)c1 [Trametinib] (partner 0.02 µM)
How it was run: as §1

BX 795 + AZD7762 = compound: O=C(NCCCNc1nc(Nc2cccc(NC(=O)N3CCCC3)c2)ncc1I)c1cccs1 [BX 795] + NC(=O)Nc1cc(-c2cccc(F)c2)sc1C(=O)N[C@H]1CCCNC1 [AZD7762] (partner 0.2 µM)
How it was run: as §1

BX 795 + Pemetrexed = compound: O=C(NCCCNc1nc(Nc2cccc(NC(=O)N3CCCC3)c2)ncc1I)c1cccs1 [BX 795] + Nc1nc2[nH]cc(CCc3ccc(C(=O)N[C@@H](CCC(=O)O)C(=O)O)cc3)c2c(=O)[nH]1 [Pemetrexed] (partner 0.2 µM)
How it was run: as §1

Cell Line	relative viability (BX 795 + Pictilisib; first compound 0.04 µM)	relative viability (BX 795 + Pictilisib; first compound 0.1265 µM)	relative viability (BX 795 + Pictilisib; first compound 0.4 µM)	relative viability (BX 795 + Pictilisib; first compound 1.265 µM)	relative viability (BX 795 + Decitabine; first compound 0.04 µM)	relative viability (BX 795 + Decitabine; first compound 0.1265 µM)	relative viability (BX 795 + Decitabine; first compound 0.4 µM)	relative viability (BX 795 + Decitabine; first compound 1.265 µM)	relative viability (BX 795 + Trametinib; first compound 0.04 µM)	relative viability (BX 795 + Trametinib; first compound 0.1265 µM)	relative viability (BX 795 + Trametinib; first compound 0.4 µM)	relative viability (BX 795 + Trametinib; first compound 1.265 µM)	relative viability (BX 795 + AZD7762; first compound 0.04 µM)	relative viability (BX 795 + AZD7762; first compound 0.1265 µM)	relative viability (BX 795 + AZD7762; first compound 0.4 µM)	relative viability (BX 795 + AZD7762; first compound 1.265 µM)	relative viability (BX 795 + Pemetrexed; first compound 0.04 µM)	relative viability (BX 795 + Pemetrexed; first compound 0.1265 µM)	relative viability (BX 795 + Pemetrexed; first compound 0.4 µM)	relative viability (BX 795 + Pemetrexed; first compound 1.265 µM)
NCI-H1355	0.451	0.423	0.436	0.424	0.355	0.278	0.449	0.337	0.427	0.344	0.44	0.362	0.784	0.607	0.734	0.69	0.798	0.977	1.09	1.01
HCC-827	1.13	1.02	1.12	0.961	0.416	0.327	0.387	0.303	0.54	0.539	0.575	0.551	0.206	0.224	0.211	0.221	0.266	0.288	0.245	0.241
LCLC-103H	0.577	0.674	0.596	0.643	0.714	0.656	0.863	0.631	0.578	0.681	0.712	0.651	0.706	0.878	0.712	0.849	0.432	0.429	0.407	0.452
NCI-H1915	0.98	0.831	0.954	0.798	0.292	0.225	0.309	0.245	0.315	0.271	0.304	0.265	0.651	0.658	0.666	0.695	0.347	0.458	0.304	0.442
NCI-H460	0.361	0.418	0.374	0.261	0.497	0.584	0.446	0.403	0.265	0.138	0.13	0.12	0.587	0.616	0.664	0.767	0.0535	0.0622	0.0597	0.0576
SW 1573	0.551	0.463	0.608	0.381	0.651	0.652	0.581	0.381	0.725	0.642	0.753	0.232					0.748	0.81	0.836	0.516
NCI-H23	0.515	0.504	0.41	0.391	0.298	0.234	0.346	0.315	0.341	0.338	0.368	0.312	0.38	0.231	0.237	0.345	0.559	0.61	0.418	0.502
BEN	0.542	0.587	0.533	0.715	0.886	0.709	0.673	0.672	1.12	1.12	0.933	1.13	0.659	0.653	0.587	0.647	0.803	0.766	0.771	0.771
COR-L 105	0.376	0.381	0.359	0.328	0.636	0.589	0.507	0.603	0.47	0.403	0.389	0.421					1.12	1.02	0.816	0.882
NCI-H2085	0.463	0.454	0.433	0.489	0.683	0.501	0.737	0.575	0.645	0.512	0.669	0.484	0.895	0.932	0.947	0.957	0.848	0.865	0.919	0.899
NCI-H2228	0.517	0.439	0.377	0.239					0.689	0.713	0.389	0.349					0.329	0.331	0.268	0.281
ChaGo-K-1	0.615	0.52	0.735	0.776	0.535	0.544	0.538	0.398	0.924	0.907	0.885	0.75	0.797	0.864	0.858	0.815	0.243	0.258	0.254	0.258
UMC-11	0.726	0.86	0.683	0.534	0.457	0.688	0.436	0.593	0.685	0.665	0.547	0.531					0.826	0.749	0.736	0.453
A-427	0.723	0.805	0.651	0.585	0.588	0.588	0.545	0.516	0.757	0.733	0.72	0.625	0.774	0.843	0.694	0.647	1.02	0.925	1.08	0.849
SK-LU-1	0.543	0.691	0.416	0.511	0.676	0.679	0.505	0.601	0.473	0.674	0.396	0.469					0.895	0.988	0.646	0.823
NCI-H1666	0.364	0.516	0.449	0.273	0.925	0.69	0.785	0.686	0.856	0.884	0.974	0.802	0.895	0.784	0.838	0.832	0.836	0.83	0.697	0.79
NCI-H2087	0.999	1.02	1.03	0.756	0.387	0.347	0.369	0.143	0.235	0.163	0.242	0.221	1.26	1.33	1.32	1.13	0.695	0.655	0.696	0.654
